These results are taken from patent US8404856B2, “Non-nucleoside reverse transcriptase inhibitors” (Merck Sharp & Dohme Corp., priority 2007, dated 2013).

Series [1] deals with T1, HIV reverse transcriptase with the K103N mutation (Human immunodeficiency virus type 1 group M subtype B, UniProt P04585, K690N).
T1 construct: made in house
The experiment in a line: ECL assay for inhibition of mutant HIV reverse transcriptase (K103N). Format: biochemical, HIV-1. The method, then: (§1) 100 μL reaction mixtures were initiated with a combination of primer-template substrate (10 nM final concentration) and dNTPs (0.6 μM dNTPs, 1.25 μM BrdUTP). The heterodimeric nucleic acid substrate was generated by annealing the DNA primer pD500 (described in Shaw-Reid et al., J. Biol. Chem., 278: 2777-2780; obtained from Integrated DNA Technologies) to t500, a 500 nucleotide RNA template created by in vitro transcription (see Shaw-Reid et al., J. Biol. Chem., 278: 2777-2780). After 1 hour incubation at 37° C., reactions were quenched by 10 μL of 1 N NaOH. Microtiter plates were incubated for an additional 30 minutes at room temperature and then neutralized with 10 μL of 1 N HCl. A mixture of detection buffer containing ruthenylated anti-BrdU antibody and streptavidin coated magnetic beads were added to the plate and incubated at room temperature for 1.5 hours prior to quantification via electrochemiluminescence instrument.
(§2) Analogous assays were conducted substituting mutant HIV strains to determine the […] inhibition of compounds of the present invention against mutant HIV reverse transcriptase. In one strain the reverse transcriptase has the Y181C mutation and in the other strain the reverse transcriptase has the K103N mutation. The mutations were generated with the […] site-directed mutagenesis kit (Stratagene).

A further series deals with T-lymphoid cells. It is filed as cell-based. Here is the method:
Cytotoxicity was determined by microscopic examination of the cells in each well in the spread assay, wherein a trained analyst observed each culture for any of the following morphological changes as compared to the control cultures: pH imbalance, cell abnormality, cytostatic, cytopathic, or crystallization (i.e., the compound is not soluble or forms crystals in the well). The toxicity value assigned to a given compound is the lowest concentration of the compound at which one of the above changes is observed.

The subject of series [2] is HIV strain containing the Y181C mutation. Description: Spread assay: inhibition of acute HIV-1 infection of T-lymphoid cells (Y181C). It is filed as cell-based. The following applies: Human immunodeficiency virus 1, T-lymphoid, read-out: Spread (Y181C) CIC95 (10% FBS). The method, then:
(§3) Assays for the inhibition of acute HIV-1 infection of T-lymphoid cells (alternatively referred to herein as the “spread assay”) were conducted in accordance with Vacca, J. P. et al., Proc. Natl. Acad. Sci. USA 1994, 91: 4096. The assays tested for inhibition of wild type HIV-1 and of HIV strains containing the Y181C or K103N mutation. […] Table C also reports the CIC95 values of certain of the title compounds of Examples 1-25 obtained in the assays employing the Y181C mutant strain and the K103N mutant strain.

Series [3] relates to HIV strain containing the K103N mutation. The experiment in a line: Spread assay: inhibition of acute HIV-1 infection of T-lymphoid cells (K103N). As to conditions: Human immunodeficiency virus 1, T-lymphoid, read-out: Spread (K103N) CIC95 (10% FBS). Format: cell-based. The method, then:
as §3

In series [4] the target is T2, HIV reverse transcriptase with the Y181C mutation (Human immunodeficiency virus type 1 group M subtype B, UniProt P04585, Y768C).
T2 construct: made in house
Description: ECL assay for inhibition of mutant HIV reverse transcriptase (Y181C). Format: biochemical, HIV-1. Here is the method:
as §1, §2

The test system of a further series is wild type HIV-1. The experiment in a line: Spread assay: inhibition of acute HIV-1 infection of T-lymphoid cells (WT). As to conditions: Human immunodeficiency virus 1, T-lymphoid, read-out: Spread (WT) CIC95 (10% FBS). Format: cell-based. Here is the method: as §3
Series [5] concerns the target HIV-1 RT enzyme (wild-type) (Human immunodeficiency virus type 1 group M subtype B, UniProt P04585). The experiment in a line: ECL assay for inhibition of HIV reverse transcriptase (WT). Format: biochemical. The method, then:
as §1

Setting [6] is: K103N mutant RT, read-out: ECL Assay (K103N) IC50.
The mark [7] stands for this setting: Y181C mutant RT, read-out: ECL Assay (Y181C) IC50.
Setting [8] is: wild-type HIV-1 RT, read-out: ECL Assay (WT) IC50.

Structures are written as SMILES. Structures can show the parent of a compound that is named as a salt. Where two headings read alike, the source gives them in different places.

On to `Cl.Nc1ccc2c(Cn3ccc(C(F)(F)F)c(Oc4cc(Cl)cc(Cl)c4)c3=O)n[nH]c2n1` [Compound 20-3, 3-{[3-(3,5-dichlorophenoxy)-2-oxo-4-(trifluoromethyl)pyridin-1(2H)-yl]methyl}-1H-pyrazolo[3,4-b]pyridin-6-aminium chloride], for which the results for the IC50 in series [1], in series [4] and in series [5] were 5.9 nM, 1.6 nM and 1.6 nM, respectively. Moreover, in the series with T-lymphoid cells, the “Cytotoxicity: no cytotoxicity at concentrations up to” value (“Cytotoxicity: no cytotoxicity” below) was > 833 nM. The IC95 in series [2] came out at 169 nM; in series [3] it was 87 nM; in the series with wild type HIV-1 (wild type HIV-1, 10% FBS) it was 20 nM.
`O=c1c(Oc2cc(Cl)cc(Cl)c2)c(C(F)(F)F)ccn1Cc1n[nH]c2ncccc12` [Compound 19-4, 3-(3,5-dichlorophenoxy)-1-(1H-pyrazolo[3,4-b]pyridin-3-ylmethyl)-4-(trifluoromethyl)pyridin-2(1H)-one]: the IC50 in series [1] (setting [6]) was determined as 2.1 nM; in series [4] (setting [7]), 1.5 nM; in series [5] (setting [8]) it was 1.1 nM. Besides, the “Cytotoxicity: no cytotoxicity” value in the series with T-lymphoid cells is given as > 833 nM. In addition, the IC95 in series [2] was 48 nM; in series [3], 21 nM; with wild type HIV-1 (wild type HIV-1, 10% FBS) it was 9 nM.
For `N#Cc1cc(Cl)cc(Oc2c(C(F)(F)F)ccn(Cc3n[nH]c4nc(N)ccc34)c2=O)c1` [Compound 17-2, 3-{[3-(3-chloro-5-cyanophenoxy)-2-oxo-4-(trifluoromethyl)pyridin-1(2H)-yl]methyl}-1H-pyrazolo[3,4-b]pyridin-6-aminium trifluoroacetate], the IC50 in series [1] worked out at 3.1 nM; in series [4] it was 2.4 nM; in series [5], 1.9 nM. In addition, the “Cytotoxicity: no cytotoxicity” value with T-lymphoid cells is listed as > 833 nM. In addition, the values for the IC95 (in series [2]; in series [3]; with wild type HIV-1) were 42 nM, 11 nM and 6 nM, respectively.
As for `N#Cc1cc(Cl)cc(Oc2cc(CCc3n[nH]c4nc(N)ccc34)[nH]c(=O)c2Cl)c1` [Compound 4-4, 3-({6-[2-(6-amino-1H-pyrazolo[3,4-b]pyridin-3-yl)ethyl]-3-chloro-2-oxo-1,2-dihydropyridin-4-yl}oxy)-5-chlorobenzonitrile], the figures for the IC50 in series [1] (setting [6]), in series [4] (setting [7]) and in series [5] (setting [8]) were 14 nM, 7.9 nM and 1.6 nM, respectively. Further, the “Cytotoxicity: no cytotoxicity” value in the series on T-lymphoid cells is listed as > 833 nM. Also, the IC95 in series [2] was found to be 438 nM; in series [3], 207 nM; in the series with wild type HIV-1 (wild type HIV-1, 10% FBS), 39 nM.
As to `N#Cc1cc(Cl)cc(Oc2c(C(F)(F)F)ccn(Cc3n[nH]c4ncccc34)c2=O)c1` [Compound 13-2, 3-chloro-5-{[2-oxo-1-(1H-pyrazolo[3,4-b]pyridin-3-ylmethyl)-4-(trifluoromethyl)-1,2-dihydropyridin-3-yl]oxy}benzonitrile], the results for the IC50 in series [1] (setting [6]), in series [4] (setting [7]) and in series [5] (setting [8]) were 2.6 nM, 2 nM and 1.6 nM, respectively. Besides, the “Cytotoxicity: no cytotoxicity” value in the series on T-lymphoid cells is reported as > 833 nM. In addition, the IC95 in series [2] stood at 8 nM; in series [3], 6 nM; with wild type HIV-1 (wild type HIV-1, 10% FBS), 4 nM.
As for `N#Cc1cc(Cl)cc(Oc2cc(CCc3n[nH]c4ncccc34)[nH]c(=O)c2)c1` [Compound 3-9, 3-chloro-5-({2-oxo-6-[2-(1H-pyrazolo[3,4-b]pyridin-3-yl)ethyl]-1,2-dihydropyridin-4-yl}oxy)benzonitrile], the IC50 in series [1] (setting [6]) amounted to 32 nM; in series [4] (setting [7]), 11 nM; in series [5] (setting [8]), 3.8 nM. Further, in the series with T-lymphoid cells, the “Cytotoxicity: no cytotoxicity” value is recorded as > 833 nM. In addition, the IC95 in series [2] is 360 nM; in series [3], 320 nM; in the series on wild type HIV-1 (wild type HIV-1, 10% FBS), 55 nM.
In the case of `N#Cc1cc(Cl)cc(Oc2nc(NCc3n[nH]c4nc(N)ccc34)c(Cl)cc2F)c1` [Compound 2-7, 3-[(6-{[(6-amino-1H-pyrazolo[3,4-b]pyridin-3-yl)methyl]amino}-5-chloro-3-fluoropyridin-2-yl)oxy]-5-chlorobenzonitrile], the IC50 worked out at 0.6 nM in series [1] (setting [6]), 1 nM in series [4] (setting [7]) and 0.5 nM in series [5] (setting [8]). Also, the “Cytotoxicity: no cytotoxicity” value in the series with T-lymphoid cells is on record as > 833 nM. For the same compound, the IC95 turned out to be 14 nM in series [2]; 28 nM in series [3]; 3 nM in the series on wild type HIV-1 (wild type HIV-1, 10% FBS).
As to `N#Cc1cc(Cl)cc(Oc2nc(NCc3n[nH]c4ncccc34)c(Cl)cc2F)c1` [Compound 1-7, 3-chloro-5-({5-chloro-3-fluoro-6-[(1H-pyrazolo[3,4-b]pyridin-3-ylmethyl)amino]pyridin-2-yl}oxy)benzonitrile], the IC50 in series [1] (setting [6]) came to 1.5 nM; in series [4] (setting [7]), 0.4 nM; in series [5] (setting [8]), 0.3 nM. Moreover, in the series with T-lymphoid cells, the “Cytotoxicity: no cytotoxicity” value is given as > 833 nM. The IC95 in series [2] was found to be 13 nM; in series [3], 94 nM; in the series on wild type HIV-1 (wild type HIV-1, 10% FBS), 3 nM.
As for `NS(=O)(=O)c1ccc(NC(=O)Cn2ccc(C(F)(F)F)c(Oc3cc(Cl)cc(Br)c3)c2=O)c(Cl)c1` [Compound 16, N-[4-(aminosulfonyl)-2-chlorophenyl]-2-[3-(3-bromo-5-chlorophenoxy)-2-oxo-4-(trifluoromethyl)pyridin-1(2H)-yl]acetamide], the results for the IC50 in series [1] (setting [6]), in series [4] (setting [7]) and in series [5] (setting [8]) were 2.8 nM, 2.6 nM and 1.9 nM, respectively. The “Cytotoxicity: no cytotoxicity” value in the series on T-lymphoid cells is listed as > 833 nM. The IC95 in series [2] was 30 nM; in series [3], 21 nM; in the series on wild type HIV-1 (wild type HIV-1, 10% FBS) it was 8 nM.
With `N#Cc1cc(Cl)cc(Oc2c(Cl)c(Cl)cn(Cc3n[nH]c4ncccc34)c2=O)c1` [Compound 23-2, 3-chloro-5-{[4,5-dichloro-2-oxo-1-(1H-pyrazolo[3,4-b]pyridin-3-ylmethyl)-1,2-dihydropyridin-3-yl]oxy}benzonitrile], the IC50 in series [1] (setting [6]) was 1.6 nM; in series [4] (setting [7]) it was 1.3 nM; in series [5] (setting [8]), 0.96 nM. The “Cytotoxicity: no cytotoxicity” value with T-lymphoid cells was > 833 nM. For the same compound, the IC95 amounted to 15 nM in series [2]; 11 nM in series [3]; 5 nM with wild type HIV-1 (wild type HIV-1, 10% FBS).
As for `N#Cc1cc(C#N)cc(Oc2c(C(F)(F)F)ccn(Cc3n[nH]c4ncccc34)c2=O)c1` [Compound 18-4, 5-{[2-oxo-1-(1H-pyrazolo[3,4-b]pyridine-3-ylmethyl)-4-(trifluoromethyl)-1,2-dihydropyridin-3-yl]oxy}isophthalonitrile], the IC50 in series [1] (setting [6]) stood at 5.1 nM; in series [4] (setting [7]), 4.1 nM; in series [5] (setting [8]) it was 3.4 nM. The “Cytotoxicity: no cytotoxicity” value in the series on T-lymphoid cells is on record as > 833 nM. The IC95 in series [2] turned out to be 8 nM; in series [3], 6 nM; in the series on wild type HIV-1 (wild type HIV-1, 10% FBS), 7 nM.
For `N#Cc1cc(Cl)cc(Oc2c(Cl)ccn(Cc3n[nH]c4nc(N)ccc34)c2=O)c1.O=C(O)C(F)(F)F` [Compound 22, 3-({1-[(6-amino-1H-pyrazolo[3,4-b]pyridin-3-yl)methyl]-4-chloro-2-oxo-1,2-dihydropyridin-3-yl}oxy)-5-chlorobenzonitrile trifluoroacetate], the IC50 is 2.1 nM in series [1], 1.8 nM in series [4] and 1.3 nM in series [5]. For the same compound, in the series on T-lymphoid cells, the “Cytotoxicity: no cytotoxicity” value is recorded as > 833 nM. In addition, the IC95 in series [2] came to 63 nM; in series [3], 7 nM; with wild type HIV-1 (wild type HIV-1, 10% FBS) it was 2 nM.
On to `N#Cc1cc(Cl)cc(Oc2c(F)c(NCc3n[nH]c4ncccc34)nc(F)c2Cl)c1` [Compound 10-4, 3-chloro-5-({3-chloro-2,5-difluoro-6-[(1H-pyrazolo[3,4-b]pyridin-3-ylmethyl)amino]pyridin-4-yl}oxy)benzonitrile], for which the IC50 turned out to be 3.2 nM in series [1] (setting [6]), 0.6 nM in series [4] (setting [7]) and 0.5 nM in series [5] (setting [8]). For the same compound, in the series on T-lymphoid cells, the “Cytotoxicity: no cytotoxicity” value was > 833 nM. Moreover, the IC95 worked out at 46 nM in series [2]; 62 nM in series [3]; 28 nM in the series with wild type HIV-1 (wild type HIV-1, 10% FBS).
